Laboratory results taken from patent US8431593B2, “Heteroaryl amide derivatives” (H. Lundbeck A/S, priority 2006, dated 2013).

biological target: T1, P2X7 receptor (Homo sapiens, UniProt Q99572); assay: P2X7 calcium mobilization assay, high throughput, antagonist activity (Example 4A); format: cell-based; settings: 50% decrease in the fluorescence response of cells exposed to 80 μM of 2′(3′)-O-(4-benzoyl-benzoyl)adenosine 5′-triphosphate; Example 4A; read-out: IC50
T1 construct: host or cells: SH-SY5Y
T1 sequence (Q99572 1-595): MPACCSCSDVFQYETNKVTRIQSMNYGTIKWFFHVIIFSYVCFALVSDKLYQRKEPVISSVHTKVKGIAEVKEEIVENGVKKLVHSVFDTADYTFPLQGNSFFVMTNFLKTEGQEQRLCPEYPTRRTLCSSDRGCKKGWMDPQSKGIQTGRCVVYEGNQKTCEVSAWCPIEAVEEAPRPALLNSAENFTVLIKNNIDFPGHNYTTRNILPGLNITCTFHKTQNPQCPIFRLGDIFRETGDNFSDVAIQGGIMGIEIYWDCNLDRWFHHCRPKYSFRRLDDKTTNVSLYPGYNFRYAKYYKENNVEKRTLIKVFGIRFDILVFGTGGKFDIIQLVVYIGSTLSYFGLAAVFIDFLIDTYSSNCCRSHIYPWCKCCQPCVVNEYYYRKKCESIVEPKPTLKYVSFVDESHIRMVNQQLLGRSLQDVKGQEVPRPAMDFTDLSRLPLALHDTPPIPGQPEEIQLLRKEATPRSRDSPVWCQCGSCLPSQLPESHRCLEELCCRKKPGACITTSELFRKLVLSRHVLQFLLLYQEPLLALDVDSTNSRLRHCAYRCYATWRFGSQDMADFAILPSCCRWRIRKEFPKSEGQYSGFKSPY
Method in brief: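 Antagonism was measured as calcium fluorescence (FLIPR Tetra) in cells seeded one day earlier at 100,000/well, loaded with dye for 1 h and exposed to compound for 1 h at room temperature before agonist. Peak RFU, minus the no-agonist background, was referenced to the mean of the agonist wells.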

IC50, < 2000 nM:
CNC(=O)CC1(c2cn3c(C(=O)NCC45CC6CC(CC(C6)C4)C5)cccc3n2)CC(=O)N(C)C1=O (stereo not shown) [Compound 807, N-(adamantan-1-ylmethyl)-2-{1-methyl-3-[2-(methylamino)-2-oxoethyl]-2,5-dioxopyrrolidin-3-yl}imidazo[1,2-a] pyridine-5-carboxamide]
CCNC(=O)CC1(c2cn3c(C(=O)NCC45CC6CC(CC(C6)C4)C5)cccc3n2)CC(=O)N(CC)C1=O (stereo not shown) [Compound 808, N-(adamantan-1-ylmethyl)-2-{1-ethyl-3-[2-(ethylamino)-2-oxoethyl]-2,5-dioxopyrrolidin-3-yl}imidazo[1,2-a]pyridine-5-carboxamide]
CCOC(=O)C(CC(=O)N(C)C)c1cn2c(C(=O)NCC34CC5CC(CC(C5)C3)C4)cccc2n1 (stereo not shown) [Compound 809, ethyl 2-{5-[(adamantan-1-ylmethyl)carbamoyl]imidazo[1,2-a]pyridin-2-yl}-4-(dimethylamino)-4-oxobutanoate]
CCOC(=O)C(CC(=O)N(CC)CC)c1cn2c(C(=O)NCC34CC5CC(CC(C5)C3)C4)cccc2n1 (stereo not shown) [Compound 810, ethyl 2-{5-[(adamantan-1-ylmethyl)carbamoyl]imidazo[1,2-a]pyridin-2-yl}-4-(diethylamino)-4-oxobutanoate]
CCN(CC)C(=O)CC(C(=O)O)c1cn2c(C(=O)NCC34CC5CC(CC(C5)C3)C4)cccc2n1 (stereo not shown) [Compound 811, 2-{5-[(adamantan-1-ylmethyl)carbamoyl]imidazo[1,2-a]pyridin-2-yl}-4-(diethylamino)-4-oxobutanoic acid]
CN(C)C(=O)CC(C(=O)O)c1cn2c(C(=O)NCC34CC5CC(CC(C5)C3)C4)cccc2n1 (stereo not shown) [Compound 812, 2-{5-[(adamantan-1-ylmethyl)carbamoyl]imidazo[1,2-a]pyridin-2-yl}-4-(dimethylamino)-4-oxobutanoic acid]
O=C(NCC12CC3CC(CC(C3)C1)C2)c1cccc2nc(Cn3nnc(-c4cccnc4)n3)cn12 [Compound 813, N-(adamantan-1-ylmethyl)-2-[(5-pyridin-3-yl-2H-tetrazol-2-yl)methyl] imidazo[1,2-a] pyridine-5-carboxamide]
O=C(NCC12CC3CC(CC(C3)C1)C2)c1cccc2nc(Cn3nnnc3-c3cccnc3)cn12 [Compound 814, N-(adamantan-1-ylmethyl)-2-[(5-pyridin-3-yl-1H-tetrazol-1-yl)methyl]imidazo [1,2-a]pyridine-5-carboxamide]
O=C(Nc1nnn[nH]1)c1cn2c(C(=O)NCC34CC5CC(CC(C5)C3)C4)cccc2n1 [Compound 815, 5-N-(adamantan-1-ylmethyl)-2-N-1H-tetrazol-5-ylmidazo[1,2-a] pyridine-2,5-dicarboxamide]
O=C(NCC12CC3CC(CC(C3)C1)C2)c1cccc2nc(Cn3nnc(-c4ccccn4)n3)cn12 [Compound 816, N-(adamantan-1-ylmethyl)-2-[(5-pyridin-2-yl-2H-tetrazol-2-yl)methyl]imidazo [1,2-a]pyridine-5-carboxamide]

same assay, conditions: 50% decrease in the fluorescence response of cells exposed to 80 μM of 2′(3′)-O-(4-benzoyl-benzoyl)adenosine 5′-triphosphate; determined as in Example 4A; read-out: IC50

IC50, < 2000 nM:
O=C(NCC12CC3CC(CC(C3)C1)C2)c1cccc2nc(Cn3nnnc3-c3ccncc3)cn12 [Compound 818, N-(adamantan-1-ylmethyl)-2-[(5-pyridin-4-yl-1H-tetrazol-1-yl)methyl]imidazo [1,2-a]pyridine-5-carboxamide]
O=C(NCC12CC3CC(CC(C3)C1)C2)c1cccc2nc(CC(=O)N3CCS(=O)(=O)CC3)cn12 [Compound 820, N-(adamantan-l-ylmethyl)-2-[2-(1,1-dioxidothio-morpholin-4-yl)-2-oxoethyl] imidazo[1,2-a] pyridine-5-carboxamide]
N[C@@H]1CCN(Cc2cn3c(C(=O)NCC4(c5ccc(Cl)cc5)CCCCC4)cccc3n2)C1 [Compound 821, 2-{[(3R)-3-aminopyrrolidin-1-yl]methyl}-N-{[1-(4-chlorophenyl)cyclohexyl]methyl} imidazo[1,2-a]pyridine-5-carboxamide]
N[C@@H]1CCN(Cc2cn3c(C(=O)NCC4(c5ccc(C(F)(F)F)cc5)CCCCC4)cccc3n2)C1 [Compound 822, 2-{[(3R)-3-aminopyrrolidin-1-yl]methyl}-N-({1-[4-(trifluoromethyl)phenyl]cyclohexyl}methyl) imidazo[1,2-a] pyridine-5-carboxamide]
CC(C)CC(CNC(=O)c1cccc2nc(CN3CC[C@@H](N)C3)cn12)c1cccnc1 (stereo partly drawn) [Compound 823, 2-{[(3R)-3-aminopyrrolidin-1-yl]methyl}-N-(4-methyl-2-pyridin-3-ylpentyl)imidazo[1,2-a]pyridine-5-carboxamide]
Cc1ccc(C2(CNC(=O)c3cccc4nc(CN5CC[C@@H](N)C5)cn34)CCCCC2)cn1 [Compound 824, 2-{[(3R)-3-aminopyrrolidin-1-yl]methyl}-N-{[1-(6-methylpyridin-3-yl)cyclohexyl]methyl} imidazo[1,2-a] pyridine-5-carboxamide]
CN(Cc1cccc(N)n1)C(=O)c1cn2c(C(=O)NCC34CC5CC(CC(C5)C3)C4)cccc2n1 [Compound 825, 5-N-(adamantan-1-ylmethyl)-2-N-[(6-aminopyridin-2-yl)methyl]-2-N-methylimidazo[1,2-a]pyridine-2,5-dicarboxamide]
O=C(NCC12CC3CC(CC(C3)C1)C2)c1cccc2nc(C(=O)n3ccc(N4CCNC4=O)n3)cn12 [Compound 826, N-(adamantan-1-ylmethyl)-2-{[3-(2-oxoimidazolidin-1-yl)-1H-pyrazol-1-yl]carbonyl}imidazo [1,2-a]pyridine-5-carboxamide]
O=C(NCC12CC3CC(CC(C3)C1)C2)c1cccc2nc(Cn3nnnc3N3CCOCC3)cn12 [Compound 828, N-(adamantan-1-ylmethyl)-2-[(5-morpholin-4-yl-1H-tetrazol-1-yl)methyl]imidazo [1,2-a]pyridine-5-carboxamide]
CC(C)CC(CNC(=O)c1cccc2nc(C(=O)N3CCC[C@@H](N)C3)cn12)c1ccc(Cl)cc1 (stereo partly drawn) [Compound 832, 2-{[(3R)-3-aminopiperidin-1-yl]carbonyl}-N-[2-(4-chlorophenyl)-4-methylpentyl] imidazo[1,2-a] pyridine-5-carboxamide]
CCOC(=O)C1(c2cn3c(C(=O)NCC45CC6CC(CC(C6)C4)C5)cccc3n2)CCCC1 [Compound 833, ethyl 1-{5-[(adamantan-1-ylmethyl)carbamoyl]imidazo[1,2-a]pyridin-2-yl} cyclopentane-carboxylate]
CC(C)CC(CNC(=O)c1cccc2nc(Cn3ccc(N)n3)cn12)c1ccc(Cl)cc1 (stereo not shown) [Compound 834, 2-[(3-amino-1H-pyrazol-1-yl)methyl]-N-[2-(4-chlorophenyl)-4-methylpentyl] imidazo [1,2-a]pyridine-5-carboxamide]
CC(C)CC(CNC(=O)c1cccc2nc(CNc3cc[nH]n3)cn12)c1ccc(Cl)cc1 (stereo not shown) [Compound 835, N-[2-(4-chlorophenyl)-4-methylpentyl]-2-[(1H-pyrazol-3-ylamino)methyl] imidazo [1,2-a]pyridine-5-carboxamide]
CC(C)CC(CNC(=O)c1cccc2nc(Cn3nccc3N)cn12)c1ccc(Cl)cc1 (stereo not shown) [Compound 836, 2-[(5-amino-1H-pyrazol-1-yl)methyl]-N-[2-(4-chlorophenyl)-4-methylpentyl] imidazo [1,2-a]pyridine-5-carboxamide]
O=C(Cc1cn2c(C(=O)NCC34CC5CC(CC(C5)C3)C4)cccc2n1)N[C@@H]1CCNC1 [Compound 837, N-(adamantan-1-ylmethyl)-2-{2-oxo-2-[(3R)-pyrrolidin-3-ylamino]ethyl} imidazo [1,2-a]pyridine-5-carboxamide]
O=C(Cc1cn2c(C(=O)NCC34CC5CC(CC(C5)C3)C4)cccc2n1)N[C@@H]1CCCNC1 [Compound 838, N-(adamantan-1-ylmethyl)-2-{2-oxo-2-[(3R)-piperidin-3-ylamino]ethyl} imidazo[1,2-a] pyridine-5-carboxamide]
CC(C)CC(CNC(=O)c1cccc2nc(CC(=O)N3CCC[C@@H](N)C3)cn12)c1ccc(Cl)cc1 (stereo partly drawn) [Compound 839, 2-{2-[(3R)-3-aminopiperidin-1-yl]-2-oxoethyl}-N-[2-(4-chlorophenyl)-4-methylpentyl] imidazo[1,2-a] pyridine-5-carboxamide]
CCOC(=O)C(Cc1ccccc1Cl)c1cn2c(C(=O)NCC34CC5CC(CC(C5)C3)C4)cccc2n1 (stereo not shown) [Compound 840, ethyl 2-{5-[(adamantan-1-ylmethyl)carbamoyl]imidazo[1,2-a]pyridin-2-yl}-3-(2-chlorophenyl) propanoate]
